In one experiment the target is T1, ΔC-TWIK-2 (Homo sapiens, UniProt Q9Y257).
T1 sequence (Q9Y257 1-276): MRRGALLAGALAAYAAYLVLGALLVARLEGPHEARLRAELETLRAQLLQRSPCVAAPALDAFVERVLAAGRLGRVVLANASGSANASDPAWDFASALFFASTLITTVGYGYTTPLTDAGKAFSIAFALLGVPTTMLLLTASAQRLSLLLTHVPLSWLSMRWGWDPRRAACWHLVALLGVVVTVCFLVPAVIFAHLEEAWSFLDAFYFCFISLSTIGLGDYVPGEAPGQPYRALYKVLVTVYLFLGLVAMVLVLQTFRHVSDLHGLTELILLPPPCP
Put plainly: automated whole-cell patch clamp. Type of experiment: cell-based.

In another experiment the target is T2, TWIK-2 (Homo sapiens, UniProt Q9Y257).
T2 sequence (Q9Y257 1-313): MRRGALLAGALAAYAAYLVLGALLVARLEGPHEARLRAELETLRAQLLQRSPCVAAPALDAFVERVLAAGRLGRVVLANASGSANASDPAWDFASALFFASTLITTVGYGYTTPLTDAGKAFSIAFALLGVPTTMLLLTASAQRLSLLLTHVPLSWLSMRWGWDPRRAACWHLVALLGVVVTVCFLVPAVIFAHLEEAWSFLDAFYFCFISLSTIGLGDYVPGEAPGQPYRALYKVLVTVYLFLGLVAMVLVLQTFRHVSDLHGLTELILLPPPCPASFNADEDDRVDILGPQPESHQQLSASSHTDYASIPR
Put plainly: automated whole-cell patch clamp, HEK293 GnTI- cells. It counts as cell-based. The settings on record: inhibition; voltage step to +60 mV from holding -90 mV. (In patch-clamp work, channel activity is measured electrically.)

Regarding `COc1ccccc1C(=O)Nc1cccc(NC(=O)c2cccc(C)c2)c1` [ML365], the “percentage inhibition at maximum drug concentration” value at ΔC-TWIK-2 is given as “in ΔC-TWIK-2, we see a significant reduction in percentage inhibition at maximum drug concentration”. In addition, the IC50 (in general, the concentration that gives 50% inhibition) on TWIK-2 came to 1500 nM.

(Values after PMC11952367 (bioRxiv, 2025).)
